This assay concerns the target T1, partially purified telomerase from a nuclear extract of HEK293 cells (Homo sapiens, UniProt O14746).
T1 construct: partially purified telomerase from a nuclear extract of HEK293 cells; endogenous in cells; host or cells: HEK293 cells, nuclear extract, partially purified
The assay is described as follows: In vitro telomerase inhibition, membrane hybridization method (U.S. Pat. No. 5,760,062). Format: biochemical. The conditions noted are these: for IC50: partially purified telomerase from nuclear extract of HEK293 cells; for residual activity of in vitro telomerase activity (in parenthesis): in the presence of the compound at a concentration of 10 μm. How it is done: Alternatively, telomerase inhibitory activity of the compounds was measured in accordance with a known method (U.S. Pat. No. 5,760,062). That is, a dimethyl sulfoxide (DMSO) solution of each agent was mixed with partially purified telomerase from a nuclear extract of HEK293 cells and incubated in the presence of an oligodeoxynucleotide to be used as the substrate and deoxynucleotide triphosphate. The obtained reacted product (DNA having a telomere sequence) was adsorbed on a membrane, and hybridization was carried out using a labeled oligonucleotide probe having a sequence complementary to the telomere sequence. The inhibition ratio was calculated based on the ratio of the signal of label on the membrane in the presence of the agent to the signal of label in the absence of the agent (control). Also, concentration of each agent which inhibits 50% of the enzyme activity based on the control was used as IC50.

T1 sequence (O14746 whole entry): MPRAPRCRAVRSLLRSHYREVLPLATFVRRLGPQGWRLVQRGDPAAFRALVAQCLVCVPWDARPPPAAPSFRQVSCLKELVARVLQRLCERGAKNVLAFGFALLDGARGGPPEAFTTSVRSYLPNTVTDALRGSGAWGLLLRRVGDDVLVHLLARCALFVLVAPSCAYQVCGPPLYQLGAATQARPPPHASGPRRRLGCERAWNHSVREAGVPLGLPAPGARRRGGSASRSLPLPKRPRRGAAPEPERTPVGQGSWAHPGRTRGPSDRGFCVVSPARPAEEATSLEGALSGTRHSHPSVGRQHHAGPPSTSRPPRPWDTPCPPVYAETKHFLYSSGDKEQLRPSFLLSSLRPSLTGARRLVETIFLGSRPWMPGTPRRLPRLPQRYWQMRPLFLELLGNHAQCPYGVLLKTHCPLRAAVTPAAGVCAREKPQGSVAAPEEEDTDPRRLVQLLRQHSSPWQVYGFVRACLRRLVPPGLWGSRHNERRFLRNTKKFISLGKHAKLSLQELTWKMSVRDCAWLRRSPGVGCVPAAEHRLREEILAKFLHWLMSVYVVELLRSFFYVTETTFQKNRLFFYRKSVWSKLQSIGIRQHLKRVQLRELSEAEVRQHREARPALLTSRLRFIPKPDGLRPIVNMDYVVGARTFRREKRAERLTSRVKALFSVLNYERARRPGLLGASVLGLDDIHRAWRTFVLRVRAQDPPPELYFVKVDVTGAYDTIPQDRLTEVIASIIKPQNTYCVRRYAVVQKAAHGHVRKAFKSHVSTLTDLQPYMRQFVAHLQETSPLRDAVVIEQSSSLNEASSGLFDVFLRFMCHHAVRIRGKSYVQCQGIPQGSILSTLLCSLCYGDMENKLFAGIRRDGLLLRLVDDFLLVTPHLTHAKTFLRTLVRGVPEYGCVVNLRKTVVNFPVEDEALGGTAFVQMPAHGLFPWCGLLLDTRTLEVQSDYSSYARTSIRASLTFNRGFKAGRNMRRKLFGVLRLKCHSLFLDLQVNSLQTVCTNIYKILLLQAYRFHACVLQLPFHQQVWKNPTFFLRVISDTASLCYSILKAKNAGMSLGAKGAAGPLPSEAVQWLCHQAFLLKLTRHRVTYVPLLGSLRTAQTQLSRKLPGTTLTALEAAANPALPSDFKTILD
T1 sequence (O60832 whole entry partner): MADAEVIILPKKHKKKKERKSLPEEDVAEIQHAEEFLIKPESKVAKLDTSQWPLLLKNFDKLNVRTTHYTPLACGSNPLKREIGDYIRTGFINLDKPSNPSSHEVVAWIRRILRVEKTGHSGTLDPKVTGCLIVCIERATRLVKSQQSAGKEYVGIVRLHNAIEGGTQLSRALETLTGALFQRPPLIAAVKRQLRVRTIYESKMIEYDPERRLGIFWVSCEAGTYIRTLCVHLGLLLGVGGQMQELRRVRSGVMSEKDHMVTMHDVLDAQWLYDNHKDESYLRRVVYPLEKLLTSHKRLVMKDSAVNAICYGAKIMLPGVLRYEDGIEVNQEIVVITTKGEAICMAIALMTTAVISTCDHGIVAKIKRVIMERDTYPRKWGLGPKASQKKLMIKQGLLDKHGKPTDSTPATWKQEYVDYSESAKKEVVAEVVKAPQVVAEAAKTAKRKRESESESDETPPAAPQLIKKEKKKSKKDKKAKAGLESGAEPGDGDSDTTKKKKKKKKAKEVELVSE
T1 sequence (Q9NPE3 whole entry partner): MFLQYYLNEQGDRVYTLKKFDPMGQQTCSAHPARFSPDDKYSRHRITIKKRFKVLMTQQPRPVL
T1 sequence (Q9NX24 whole entry partner): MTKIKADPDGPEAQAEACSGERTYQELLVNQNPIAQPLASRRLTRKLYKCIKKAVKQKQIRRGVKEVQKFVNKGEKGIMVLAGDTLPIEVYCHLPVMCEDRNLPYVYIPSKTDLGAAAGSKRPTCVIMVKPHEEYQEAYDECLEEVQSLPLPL
T1 sequence (Q9NY12 whole entry partner): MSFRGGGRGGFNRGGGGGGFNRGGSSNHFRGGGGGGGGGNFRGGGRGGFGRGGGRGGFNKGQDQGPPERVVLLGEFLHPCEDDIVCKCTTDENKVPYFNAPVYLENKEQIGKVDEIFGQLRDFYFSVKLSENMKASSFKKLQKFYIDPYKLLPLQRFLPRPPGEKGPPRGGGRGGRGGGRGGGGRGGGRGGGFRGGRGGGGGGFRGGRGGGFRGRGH

For orientation: IC50 means the concentration that inhibits the measured activity by half. A low value points to higher potency. In turn, `Cc1ccc(Sc2ccc(C=C3SC(=O)NC3=O)cc2[N+](=O)[O-])cc1` [Compound 9] displayed an IC50 of 8.3 µM.
Still for that read-out and setting: for `O=C1NC(=O)C(=Cc2cccc(Oc3ccc(Cl)c(Cl)c3)c2)S1` [Compound 13] the value was 5.9 µM.
In turn, `O=C1NC(=O)C(=Cc2cc([N+](=O)[O-])ccc2OCc2ccc(Cl)c(Cl)c2)S1` [Compound 17] showed an IC50 of 10 µM.
Same read-out and setting: for `Cc1ccc(COc2ccc([N+](=O)[O-])cc2C=C2SC(=O)NC2=O)cc1` [Compound 18] the value was 11 µM.
Still for that read-out and setting: for `Cc1ccc(COc2cc(C=C3SC(=O)NC3=O)ccc2[N+](=O)[O-])cc1` [Compound 19] the value was 70 µM.
Molecule `Cc1ccc(COc2ccc(C=C3SC(=O)NC3=O)cc2[N+](=O)[O-])cc1` [Compound 20] came in with a 50% inhibitory concentration (IC50) of 9 µM.
Still for that read-out and setting: for `COc1ccc(OCc2ccc(C)cc2)c(C=C2SC(=O)NC2=O)c1` [Compound 23] the value was 14 µM.
For `Cc1ccc(COc2ccc(Cl)cc2C=C2SC(=O)NC2=O)cc1` [Compound 24], the IC50 was found to be 5.3 µM.
The same measure, in the same setting: for `Cc1ccc(COc2ccc(Br)cc2C=C2SC(=O)NC2=O)cc1` [Compound 25] the value was 4.2 µM; for `O=C1NC(=O)C(=Cc2ccc(N(c3ccccc3)c3ccccc3)cc2)S1` [Compound 26], 4.2 µM; for `O=C1NC(=O)C(=Cc2ccc(C(=O)c3ccccc3)cc2)S1` [Compound 31], 15 µM.
`O=C1NC(=O)C(=Cc2ccc(Cc3ccccc3)cc2)S1` [Compound 32] registered an IC50 of 21 µM.
Consider `O=C1NC(=O)C(=Cc2ccc(C(O)(c3ccccc3)c3ccccc3)cc2)S1` [Compound 33], for which the IC50 came to 5.5 µM.
Turning to `O=C1NC(=O)C(=Cc2ccc(CN(c3ccccc3)c3ccccc3)cc2)S1` [Compound 35], half-maximal inhibition (IC50) was put at 3.9 µM.
The same measure, in the same setting: for `O=C1NC(=O)C(=Cc2ccc(N(Cc3ccccc3)Cc3ccccc3)cc2)S1` [Compound 36] the value was 5.1 µM.
The same measure, in the same setting: for `O=C1NC(=O)C(=Cc2cc(Br)sc2Sc2ccc(Cl)cc2)S1` [Compound 43] the value was 2.6 µM.
Still for that read-out and setting: for `O=C1NC(=O)C(=Cc2cc(-c3ccccc3)sc2Sc2ccc(Cl)cc2)S1` [Compound 44] the value was 1.9 µM; for `Cc1ccc(COc2ccc(-c3ccccc3)cc2C=C2SC(=O)NC2=O)cc1` [Compound 47], 4.1 µM.
For the molecule `Cc1ccc(COc2ccc(-c3cccs3)cc2C=C2SC(=O)NC2=O)cc1` [Compound 48], 1.6 µM corresponded to half-maximal inhibition (IC50).
Still for that read-out and setting: for `O=C1NC(=O)C(=Cc2ccc(N(c3ccc(CO)cc3)c3ccc(CO)cc3)cc2)S1` [Compound 49] the value was 4.4 µM; for `O=C1NC(=O)C(=Cc2cc(C(=O)O)sc2Sc2ccc(Cl)cc2)S1` [Compound 53], 0.77 µM; for `O=C1NC(=O)C(=Cc2cc(C(=O)Nc3ccccc3)sc2Sc2ccc(Cl)cc2)S1` [Compound 55], 5.3 µM.
As for `COC(=O)c1cc(C=C2SC(=O)NC2=O)c(Sc2ccc(Cl)cc2)s1` [Compound 58], the “residual activity of in vitro telomerase activity (in parenthesis)” value (shortened to “residual activity”) is “(56%)”.
The molecule `O=C1NC(=O)C(=Cc2sccc2Oc2ccccc2)S1` [Compound 59] returned an IC50 of 2.1 µM.
Same read-out and setting: for `O=C1NC(=O)C(=Cc2cc(Sc3ccc(Cl)cc3)cs2)S1` [Compound 60] the value was 4.5 µM; for `O=C1NC(=O)C(=Cc2cc(Sc3ccc(Cl)cc3)c(Sc3ccc(Cl)cc3)s2)S1` [Compound 61], 0.33 µM.
Still for that read-out and setting: for `O=C1NC(=O)C(=Cc2ccc(Sc3ccc(Cl)cc3)s2)S1` [Compound 62] the value was 7.8 µM.
In the case of `O=C1NC(=O)C(=Cc2cc(Br)c(Sc3ccc(Cl)cc3)s2)S1` [Compound 63], the IC50 turned out to be 6.5 µM.
On the same count and under the same terms, for `O=C1NC(=O)/C(=C/c2cc(Br)c([S+]([O-])c3ccc(Cl)cc3)s2)S1` (stereo not drawn) [Compound 64] the value was 9.7 µM; for `O=C1NC(=O)C(=Cc2cc(C(=O)c3ccc(Cl)cc3)c(Sc3ccc(Cl)cc3)s2)S1` [Compound 65], 6.2 µM.
Take `O=C1NC(=O)C(=Cc2cc([N+](=O)[O-])ccc2Sc2ccc(Cl)cc2)S1` [Compound 67]: the IC50 turned out to be 1 µM.
With `O=C1NC(=O)C(=Cc2cc([N+](=O)[O-])ccc2Sc2cccc(Cl)c2)S1` [Compound 70], the IC50 came to 4.8 µM.
Consider `O=C1NC(=O)C(=Cc2cc([N+](=O)[O-])ccc2Sc2ccccc2Cl)S1` [Compound 71], for which the half-maximal inhibitory concentration (IC50) worked out at 2.7 µM.
As for `O=C1NC(=O)C(=Cc2cc([N+](=O)[O-])ccc2Sc2ccc(Cl)c(Cl)c2)S1` [Compound 72], the IC50 came to 4.3 µM.
The same measure, in the same setting: for `O=C1NC(=O)C(=Cc2cc([N+](=O)[O-])ccc2Sc2ccc(Br)cc2)S1` [Compound 73] the value was 7 µM; for `COc1ccc(Sc2ccc([N+](=O)[O-])cc2C=C2SC(=O)NC2=O)cc1` [Compound 74], 3.7 µM; for `O=C1NC(=O)C(=Cc2cc([N+](=O)[O-])ccc2SCc2ccccc2)S1` [Compound 76], 3.9 µM.
The same measure, in the same setting: for `O=C1NC(=O)C(=Cc2cc([N+](=O)[O-])ccc2SCc2ccc(Cl)cc2)S1` [Compound 79] the value was 3.5 µM; for `O=C1NC(=O)C(=Cc2ccc(Sc3ccc(Br)cc3)c([N+](=O)[O-])c2)S1` [Compound 80], 5.5 µM.
The same measure, in the same setting: for `O=C1NC(=O)C(=Cc2cc([N+](=O)[O-])ccc2SC2CCCCC2)S1` [Compound 84] the value was 3.9 µM; for `Cc1ccc(Sc2ccc(Br)cc2C=C2SC(=O)NC2=O)cc1` [Compound 87], 6.9 µM.
`Cc1ccc(Sc2ccc(-c3ccco3)cc2C=C2SC(=O)NC2=O)cc1` [Compound 90] came in with an IC50 of 3.7 µM.
As for `Cc1ccc([S+]([O-])c2ccc(-c3ccco3)cc2C=C2SC(=O)NC2=O)cc1` (stereo not drawn) [Compound 91], the “residual activity” value was “(61%)”.
Same read-out and setting: for `Cc1ccc([S+]([O-])c2ccc(-c3cccs3)cc2C=C2SC(=O)NC2=O)cc1` (stereo not drawn) [Compound 93] the value was “(55%)”.
As to `Cc1ccc(Sc2ccc(C#N)cc2C=C2SC(=O)NC2=O)cc1` [Compound 94], inhibition was half-maximal at 7.8 µM (IC50).
For the molecule `Cc1ccc(Sc2ccc(CO)cc2C=C2SC(=O)NC2=O)cc1` [Compound 96], the “residual activity” value was “(62%)”.
`Cc1ccc(Sc2cccc(C(F)(F)F)c2C=C2SC(=O)NC2=O)cc1` [Compound 99] gave an IC50 of 6.9 µM.
`Cc1ccc(Sc2ccc(C(F)(F)F)cc2C=C2SC(=O)NC2=O)cc1` [Compound 100]: half-maximal inhibition (IC50) required 4.4 µM.
As for `Cc1ccc(Sc2cc(C(F)(F)F)ccc2C=C2SC(=O)NC2=O)cc1` [Compound 101], the “residual activity” value is given as “(62%)”.
Same read-out and setting: for `COc1ccc(Sc2ccc(C)cc2)c(C=C2SC(=O)NC2=O)c1` [Compound 104] the value was “(61%)”.
The molecule `Cc1ccc(Sc2ccc(Cl)cc2C=C2SC(=O)NC2=O)cc1` [Compound 106] returned an IC50 of 4.5 µM.
Take `O=C1NC(=O)C(=Cc2cc([N+](=O)[O-])ccc2Oc2ccccc2)S1` [Compound 110]: the “residual activity” value was “(53%)”.
As to `O=C1NC(=O)C(=Cc2cc([N+](=O)[O-])ccc2Sc2ccc(C(F)(F)F)cc2)S1` [Compound 115], the IC50 is 2.7 µM.
The molecule `O=C1NC(=O)C(=Cc2ccc(N(Cc3ccccc3)c3ccccc3)cc2)S1` [Compound 121] showed an IC50 of 4 µM.
Still for that read-out and setting: for `O=C1NC(=O)C(=Cc2cc([N+](=O)[O-])ccc2SCCO)S1` [Compound 122] the value was 7.7 µM; for `CCCN(CCC)c1ccc([N+](=O)[O-])cc1C=C1SC(=O)NC1=O` [Compound 123], 6.9 µM.
Regarding `O=C1NC(=O)C(=Cc2cc([N+](=O)[O-])ccc2N2CCCCC2)S1` [Compound 124], the “residual activity” value is listed as “(54%)”.
As to `O=C1NC(=O)C(=Cc2cc([N+](=O)[O-])ccc2N2CCOCC2)S1` [Compound 125], the IC50 amounted to 1.6 µM.
The same measure, in the same setting: for `COc1cc(O)ccc1C=C1SC(=O)NC1=O` [Compound 126] the value was 1.3 µM.
In the case of `O=C1NC(=O)C(=Cc2ccccc2OC(F)(F)F)S1` [Compound 127], the IC50 is 5.7 µM.
In turn, `O=C1NC(=O)/C(=C/c2c3ccccc3c(Sc3ccc(Cl)cc3)c3ccccc23)S1` [Compound 128] gave an IC50 of 2.6 µM.
With `O=C1NC(=O)C(=Cc2cc([N+](=O)[O-])ccc2Sc2ccc(C(=O)O)cc2)S1` [Compound 129], the IC50 was 8.1 µM.
Turning to `CSc1ccc(Sc2ccc([N+](=O)[O-])cc2C=C2SC(=O)NC2=O)cc1` [Compound 132], it took 2.6 µM to reach half-maximal inhibition (IC50).
On to `Cc1ccc(Sc2ccc(C=C3SC(=O)NC3=O)cc2Oc2ccccc2)cc1` [Compound 137], for which the IC50 was 5.5 µM.
Same read-out and setting: for `COc1cc(C=C2SC(=O)NC2=O)ccc1Sc1ccc(C)cc1` [Compound 138] the value was 4.3 µM; for `Cc1ccc(Sc2ccc(C(=O)OCc3ccccc3)cc2C=C2SC(=O)NC2=O)cc1` [Compound 139], 4.4 µM; for `O=C1NC(=O)C(=Cc2cc([N+](=O)[O-])ccc2Sc2ccc3ccccc3c2)S1` [Compound 171], 7.2 µM.
`CCc1ccc(CCOc2ccc(CC3SC(=O)NC3=O)cc2)nc1` (stereo not drawn) [Pioglitazone, pioglitazone, reference compound] yielded an IC50 of 83 µM.
`Cc1c(C)c2c(c(C)c1O)CCC(C)(COc1ccc(CC3SC(=O)NC3=O)cc1)O2` (stereo not drawn) [Troglitazone, troglitazone, reference compound] displayed a 50% inhibitory concentration (IC50) of 16 µM.

(Values after patent publication US6518268B1, “Telomerase inhibitors and methods of their use” (Geron Corporation, priority 1999, dated 2003).)
